Measurements: US4567178A, “Substituted 5,11-dihydro-6H-dibenz[b,e]azepin-6-ones and pharmaceutical compositions containing same” (Dr. Karl Thomae GmbH, priority 1984, dated 1986)

Experiments:
[1] = Mydriasis (effect on pupil size); conditions: rat, in vivo, iv, pupil size observed for ten minutes
Protocol: The effect of the test substances on the pupil size in rats was investigated as follows:
The substances were administered intravenously to groups of ten animals in at least three uniformly graduated dosages. The pupil size was then observed for ten minutes to see if there were any changes (the occurrence of mydriasis or miosis), and the test was carried out blind, i.e., the investigator was not aware of the preliminary treatment received by the animals. The percentage of test animals in which mydriasis occurred was determined. The ED50 values were again determined according to LITCHFIELD and WILCOXON (see above).

[2] = target: T1, muscarinic receptors (smooth muscle from fundus of stomach) (Rattus norvegicus, UniProt P10980); experiment: Muscarinic receptor binding (inhibition of specific 3H-N-methylscopolamine binding), smooth muscle from fundus of stomach; set-up: species or system rat (male Sprague-Dawley)
T1 construct: Smooth muscle of the fundic section of the stomach was separated from the gastric mucosa; from tissue; host or cells: fundic smooth muscle homogenate of the stomach of male Sprague-Dawley rats
T1 sequence (P10980 1-466): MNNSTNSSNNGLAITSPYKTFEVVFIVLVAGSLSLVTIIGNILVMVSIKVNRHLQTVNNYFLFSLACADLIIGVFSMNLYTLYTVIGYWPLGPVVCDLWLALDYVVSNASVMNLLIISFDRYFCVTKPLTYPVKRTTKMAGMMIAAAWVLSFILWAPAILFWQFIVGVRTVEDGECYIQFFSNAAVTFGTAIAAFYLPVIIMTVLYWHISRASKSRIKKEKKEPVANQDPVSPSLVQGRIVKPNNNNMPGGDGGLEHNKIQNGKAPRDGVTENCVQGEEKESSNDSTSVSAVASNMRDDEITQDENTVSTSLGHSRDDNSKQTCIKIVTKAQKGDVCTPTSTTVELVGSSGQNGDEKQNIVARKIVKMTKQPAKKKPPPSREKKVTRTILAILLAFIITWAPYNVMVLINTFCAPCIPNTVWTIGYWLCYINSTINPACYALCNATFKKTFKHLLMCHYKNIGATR
Protocol: (§1) Determination of the IC50 value
(§2) The organ donors were male Sprague-Dawley rats weighing from 180 to 220 gm. After the removal of the stomach and cerebral cortex, all the other steps were carried out in ice-cold HepesHCl buffer (pH 7.4:100 m molar NaCl, 10 m molr MgCl2). Smooth muscle of the fundic section of the stomach was separated from the gastric mucosa and subjected to preliminary homogenization. All the organs were then homogenized in a potter apparatus.
(§3) For the binding test, the homogenized organ preparations were diluted as follows:
Smooth muscle from the funding of the stomach: 1:100.
(§4) The homogenized organ preparations were incubated in an Eppendorf centrifugal tube at 30° C. with a specific concentration of the radioligand and a concentration series of the non-radioactive test substances. The period of incubation was 45 minutes. 0.3N molar ^3 H-N-methylscopolamine (^3 H-NMS) was used as the radioligand. After the incubation had been stopped by centrifuging at 14,000 g, the radioactivity in the pellet was determined. It represents the sum of specific and non-specific binding of ^3 H-NMS. The proportion of non-specific binding was defined as the radioactivity which was bound in the presence of 1μ molar quinuclidinyl benzylate. Four measurements were taken in each case. The IC50 values of the non-labelled test substances were determined graphically. They represent the concentration of test substance at which the specific binding of ^3 H-NMS to the muscarinic receptors in the various organs was inhibited by 50%.

[3] = system: oxotremorine-induced secretion of saliva; experiment: Oxotremorine test: inhibition of oxotremorine-induced salivation; type: in vivo, rat (Crl:COBS-CD(SD) BR, female albino); conditions: Rattus norvegicus, iv, read-out: Oxotremorine Tests: Inhibition of Salivation ED50
Protocol: Oxotremorine, a specific agonist at muscarinic receptors, produces lesions of the gastric mucosa in rats and increases the secretion of saliva. This test model was chosen to be able to determine any selective activity of an antimuscarinic substance on the stomach.
Ten female albino rats (of the Crl:COBS-CD(SD) BR strain) with a body weight of from 120 to 150 gm were used for each treatment group. These rats were given free access to drinking water but were deprived of food for 24 hours before the start of the test.
To determine, in preliminary tests, the muscarinic effect of oxotremorine on each of the symptoms investigated, a dosage-activity curve was plotted with at least three doses for each symptom.
When testing antimuscarinic substances, the oxotremorine dosage used was the dosage which triggered the symptom to be influenced in 90 to 100% of the animals in the preliminary tests.
Secretion of saliva: 0.083 mg/kg i.v.
Each antimuscarinic substance was administered in uniformly graduated dosages by intravenous route 15 minutes before the administration of oxotremorine. Control groups were given the solvent and suspension agent in corresponding amounts instead of the test substance.
The results were expressed as the percentage inhibition of the oxotremorine effect (percentage of the animals without the symptom in question). The ED50 values were determined using the method of LITCHFIELD and WILCOXON (J. Pharmacol. Exp. Ther. 96, 99, 1949).

[4] = target: muscarinic receptors (cerebral cortex); experiment: Muscarinic receptor binding (inhibition of specific 3H-N-methylscopolamine binding), cerebral cortex; set-up: species or system rat (male Sprague-Dawley); conditions: rat cerebral cortex homogenate 1:3000, 3H-NMS, 30° C., 45 minutes; read-out: Receptor Binding Tests IC50, Cortex
Protocol: as §1, §2, §3
as §4, with “They represent the concentration of test substance at which the specific binding of ^3 H-NMS to the muscarinic receptors in the various organs was inhibited by 50%.” left out

Compound | ED50 at 10 min [1] [mg/kg] | IC50 [2] [nM] | ED50 [3] [mg/kg] | IC50 [4] [nM]
CN1CCN(CC(=O)C2c3ccccc3NC(=O)c3ccccc32)CC1 (centres unmarked) [C, 5,11-Dihydro-[(4-methyl-1-piperazinyl)-acetyl]-6H-dibenz[b,e]azepin-6-one] | 0.161 | 400 | 0.335 | –
CN1CCC(CC(=O)C2c3ccccc3NC(=O)c3ccccc32)CC1 (centres unmarked) [B, 5,11-Dihydro-11-[(1-methyl-4-piperidinyl)-acetyl]-6H-dibenz[b,e]azepin-6-one] | 0.179 | 150 | 0.186 | 25
CN1CCC(NC(=O)C2c3ccccc3NC(=O)c3ccccc32)CC1 (centres unmarked) [A, 5,11-Dihydro-11-[[(1-methyl-4-piperidinyl)-amino]-carbonyl]-6H-dibenz[b,e]azepin-6-one] | 0.075 | 700 | 0.19 | 40
